The results in this text go back to US10899738B2 (THE REGENTS OF THE UNIVERSITY OF MICHIGAN, priority 2016, dated 2021).

The target in one test is menin protein (Homo sapiens (Human), UniProt O00255). Briefly: biochemical. The format is binding. Conditions: FP competitive binding; menin protein 4 nM, FAM-MM2 probe 2 nM. In a few lines: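 Competitive fluorescence polarization assay using FAM-labelled MLL1 peptide probe FAM-MM2 (2 nM final) preincubated with menin (4 nM final) in PBS with 0.02% bovine γ-globulin, 4% DMSO and 0.01% Triton X-100. Compounds were added and incubated 30 min at room temperature. IC50 came from nonlinear regression of competition curves, with Ki also derived.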
Chain of menin protein (O00255 whole entry): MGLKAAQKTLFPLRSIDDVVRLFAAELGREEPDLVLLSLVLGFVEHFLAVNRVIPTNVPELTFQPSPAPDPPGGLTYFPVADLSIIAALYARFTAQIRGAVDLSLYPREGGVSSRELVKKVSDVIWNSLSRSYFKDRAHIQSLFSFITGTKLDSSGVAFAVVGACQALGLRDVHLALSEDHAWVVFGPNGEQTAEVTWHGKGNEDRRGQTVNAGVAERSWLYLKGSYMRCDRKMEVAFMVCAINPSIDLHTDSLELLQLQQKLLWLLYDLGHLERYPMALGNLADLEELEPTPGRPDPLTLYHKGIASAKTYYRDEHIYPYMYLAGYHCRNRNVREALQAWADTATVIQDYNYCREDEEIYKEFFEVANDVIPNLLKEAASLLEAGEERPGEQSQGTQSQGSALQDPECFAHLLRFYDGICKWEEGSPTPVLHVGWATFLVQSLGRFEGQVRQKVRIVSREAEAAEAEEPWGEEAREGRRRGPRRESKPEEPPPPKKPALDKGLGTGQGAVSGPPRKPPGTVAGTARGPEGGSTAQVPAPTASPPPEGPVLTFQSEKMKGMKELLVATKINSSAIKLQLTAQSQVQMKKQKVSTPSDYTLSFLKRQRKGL
With `CC(=O)O[C@H]1CCC[C@@H]1C(C#N)(c1ccccc1)C1CCN(CC#Cc2ccc(C#N)cc2)CC1` (mixture of isomers) [compound 386, rac-(1S,2R)-2-(cyano(1-(3-(4-cyanophenyl)prop-2-yn-1-yl)piperidin-4-yl)(phenyl)methyl)cyclopentyl acetate], the “Menin Binding Affinity IC50 (μM)” value is given as “No inhibition”.

The test is the same for the next values; noted with them: FP competitive binding; menin protein 4 nM, FAM-MM2 probe 2 nM; read-out: Menin Binding Affinity IC50.
The term IC50 denotes the point on the concentration scale where inhibition reaches its midpoint. As to `c1ccc(OCCCN2CCC(C3(C4CCCC4)NCCc4ccccc43)CC2)cc1` (stereo not drawn) [compound 76, 1-cyclopentyl-1-(1-(3-phenoxypropyl)piperidin-4-yl)-1,2,3,4-tetrahydroisoquinoline], the IC50 came to 1300 nM.

On to `O=S(=O)(c1ccc(N2CC(CN3CCC(C4(C5CCCC5)NCCc5ccccc54)CC3)C2)cc1)C1CCOCC1` (stereo not drawn) [compound 97, 1-cyclopentyl-1-(1-((1-(4-((tetrahydro-2H-pyran-4-yl)sulfonyl)phenyl)azetidin-3-yl)methyl)piperidin-4-yl)-1,2,3,4-tetrahydroisoquinoline], for which the IC50 amounted to 49 nM.

Take `COC[C@H]1CCC[C@@H]1C(C#N)(c1ccccc1)C1CCN(CC2CN(c3ccc(S(=O)(=O)C4CC4)cc3)C2)CC1` (mixture of isomers) [compound 265, rac-2-(1-((1-(4-(cyclopropylsulfonyl)phenyl)azetidin-3-yl)methyl)piperidin-4-yl)-2-((1S,2S)-2-(methoxymethyl)cyclopentyl)-2-phenylacetonitrile]: the IC50 was 4900 nM.

Consider `CC(=O)O[C@@H]1CCC[C@H]1C(C#N)(c1ccccc1)C1CCN(CC2CN(c3ccc(S(=O)(=O)c4ccnc(C)c4)cc3)C2)CC1` (mixture of isomers) [compound 200, rac-(1R,2S)-2-(cyano(1-((1-(4-((2-methylpyridin-4-yl)sulfonyl)phenyl)azetidin-3-yl)methyl)piperidin-4-yl)(phenyl)methyl)cyclopentyl acetate], for which the IC50 is 17 nM.

As to `N#Cc1ccc(OCCCN2CC=C(C3(C4CCCC4)NCCc4ccccc43)CC2)cc1` (stereo not drawn) [compound 79, 4-(3-(4-(1-cyclopentyl-1,2,3,4-tetrahydroisoquinolin-1-yl)-3,6-dihydropyridin-1(2H)-yl)propoxy)benzonitrile], the IC50 came out at 700 nM.

On to `N#Cc1ccc(OC2CC(N3CCC(C4(C5CCCC5)NCCc5ccccc54)CC3)C2)cc1` (single isomer, unassigned) [compound 131, 4-((1r,3r)-3-(4-(1-cyclopentyl-1,2,3,4-tetrahydroisoquinolin-1-yl)piperidin-1-yl)cyclobutoxy)benzonitrile], for which the IC50 is 1100 nM.

Consider `N#CC(c1ccccc1)(C1CCCC1)C1CCN(CC2CN(c3ccc(S(=O)(=O)c4ccncc4)cc3)C2)CC1` (stereo not drawn) [compound 190, 2-cyclopentyl-2-phenyl-2-(1-((1-(4-(pyridin-4-ylsulfonyl)phenyl)azetidin-3-yl)methyl)piperidin-4-yl)acetonitrile], for which the 50% inhibitory concentration (IC50) worked out at 2000 nM.

Take `N#Cc1ccc(N2CC(CN3CCC(C4(C5CCCC5)NCCc5ccccc54)CC3)C2)cn1` (stereo not drawn) [compound 109, 5-(3-((4-(1-cyclopentyl-1,2,3,4-tetrahydroisoquinolin-1-yl)piperidin-1-yl)methyl)azetidin-1-yl)picolinonitrile]: the IC50 stood at 825 nM.

As for `CS(=O)(=O)C[C@H]1CCC[C@@H]1C(C#N)(c1ccccc1)C1CCN(CC2CN(c3ccc(S(=O)(=O)c4ccncc4)cc3)C2)CC1` (mixture of isomers) [compound 255, rac-2-((1S,2S)-2-((methylsulfonyl)methyl)cyclopentyl)-2-phenyl-2-(1-((1-(4-(pyridin-4-ylsulfonyl)phenyl)azetidin-3-yl)methyl)piperidin-4-yl)acetonitrile], the IC50 worked out at 4700 nM.

As to `CC(=O)N[C@@H]1CCC[C@H]1C(C#N)(c1ccccc1)C1CCN(CC2CN(c3ccc(S(=O)(=O)C4CC4)cc3)C2)CC1` (mixture of isomers) [compound 282, rac-N-((1R,2S)-2-(cyano(1-((1-(4-(cyclopropylsulfonyl)phenyl)azetidin-3-yl)methyl)piperidin-4-yl)(phenyl)methyl)cyclopentyl) acetamide], the IC50 worked out at 3300 nM.

In the case of `CNC(=O)[C@H]1CCC[C@@H]1C(C#N)(c1ccccc1)C1CCN(CC2CN(c3ccc(S(=O)(=O)C4CC4)cc3)C2)CC1` (mixture of isomers) [compound 334, rac-(1S,2S)-2-(cyano(1-((1-(4-(cyclopropylsulfonyl)phenyl)azetidin-3-yl)methyl)piperidin-4-yl)(phenyl)methyl)-N-methylcyclopentane-1-carboxylate], the IC50 stood at 3200 nM.

Regarding `CNC(=O)O[C@H]1CCC[C@@H]1C(C#N)(c1ccccc1)C1CCN(CC2CN(c3ccc(C(=O)OC)cc3)C2)CC1` (mixture of isomers) [compound 373, methyl rac-4-(3-((4-(cyano((1R,2S)-2-((methylcarbamoyl)oxy)cyclopentyl)(phenyl)methyl)piperidin-1-yl)methyl)azetidin-1-yl)benzoate], the IC50 stood at 112 nM.

For `CCNC(=O)[C@H]1CCC[C@@H]1C(C#N)(c1ccccc1)C1CCN(CC2CN(c3ccc(S(=O)(=O)C4CC4)cc3)C2)CC1` (mixture of isomers) [compound 335, rac-(1S,2S)-2-(cyano(1-((1-(4-(cyclopropylsulfonyl)phenyl)azetidin-3-yl)methyl)piperidin-4-yl)(phenyl)methyl)-N-ethylcyclopentane-1-carboxamide], the IC50 amounted to 5600 nM.

As to `CN1Cc2ccccc2C(c2ccccn2)(C2CCN(CC3CN(c4ccc(S(C)(=O)=O)cc4)C3)CC2)C1` (stereo not drawn) [compound 170, 2-methyl-4-(1-((1-(4-(methylsulfonyl)phenyl)azetidin-3-yl)methyl)piperidin-4-yl)-4-(pyridin-2-yl)-1,2,3,4-tetrahydroisoquinoline], the 50% inhibitory concentration (IC50) was found to be 47600 nM.

`CNC(=O)O[C@@H]1CCC[C@H]1C(Cn1ccnc1)(c1ccccc1)C1CCN(CC2CN(c3ccc(C#N)cc3)C2)CC1` (mixture of isomers) [compound 365, rac-(1R,2S)-2-(1-(1-((1-(4-cyanophenyl)azetidin-3-yl)methyl)piperidin-4-yl)-2-(1H-imidazol-1-yl)-1-phenylethyl)cyclopentyl methylcarbamate]: the IC50 came to 281 nM.

On to `CN(C)C(=O)N[C@@H]1CCC[C@H]1C(Cn1ccnc1)(c1ccccc1)C1CCN(CC2CN(c3ccc(S(=O)(=O)c4cnn(C)c4)cc3)C2)CC1` (mixture of isomers) [compound 377, rac-3-((1R,2S)-2-(2-(1H-imidazol-1-yl)-1-(1-((1-(4-((1-methyl-1H-pyrazol-4-yl)sulfonyl)phenyl)azetidin-3-yl)methyl)piperidin-4-yl)-1-phenylethyl)cyclopentyl)-1,1-dimethylurea], for which the IC50 came out at 1130 nM.

With `CCC1CCCC1C(C#N)(c1ccccc1)C1CCN(CC2CN(c3ccc(S(=O)(=O)c4ccncc4)cc3)C2)CC1` (stereo not drawn) [compound 338, 2-(2-ethylcyclopentyl)-2-phenyl-2-(1-((1-(4-(pyridin-4-ylsulfonyl)phenyl)azetidin-3-yl)methyl)piperidin-4-yl)acetonitrile], the IC50 came out at 10200 nM.

Take `N#Cc1ccc(OCCCN2CCC(C3(C4CCCC4)COCc4ccccc43)CC2)cc1` (stereo not drawn) [compound 35, 4-(3-(4-(4-cyclopentylisochroman-4-yl)piperidin-1-yl)propoxy)benzonitrile]: the IC50 worked out at 3200 nM.

Consider `CC(=O)O[C@H]1CCC[C@@H]1C1(C2CCN(CC3CN(c4ccc(S(=O)(=O)c5ccnc(C)c5)cc4)C3)CC2)CN(C)Cc2ccccc21` (mixture of isomers) [compound 202, rac-(1R,2S)-2-(2-methyl-4-(1-((1-(4-((2-methylpyridin-4-yl)sulfonyl)phenyl)azetidin-3-yl)methyl)piperidin-4-yl)-1,2,3,4-tetrahydroisoquinolin-4-yl)cyclopentyl acetate], for which the IC50 amounted to 113 nM.

Turning to `CNC(=O)O[C@@H]1CCC[C@H]1C(C#N)(c1ccccc1)C1CCN(CC2CN(c3ccc(C(C)(C)C)cc3)C2)CC1` (mixture of isomers) [compound 423, rac-(1R,2S)-2-((1-((1-(4-(tert-butyl)phenyl)azetidin-3-yl)methyl)piperidin-4-yl)(cyano)(phenyl)methyl) cyclopentyl methylcarbamate], the IC50 came out at 776 nM.

On to `N#Cc1cc2cc(CN3CCC(CC4(C5CCCC5)NCCc5ccccc54)CC3)ccc2[nH]1` (stereo not drawn) [compound 112, 5-((4-((1-cyclopentyl-1,2,3,4-tetrahydroisoquinolin-1-yl)methyl)piperidin-1-yl)methyl)-1H-indole-2-carbonitrile], for which the IC50 stood at 41600 nM.

With `O=S(=O)(c1ccc(CCN2CCc3cc(C4(C5CCCC5)NCCc5ccccc54)ccc3C2)cc1)C1CC1` (stereo not drawn) [compound 99, 1-cyclopentyl-2′-(4-(cyclopropylsulfonyl)phenethyl)-1,1′,2,2′,3,3′,4,4′-octahydro-1,6′-biisoquinoline], the half-maximal inhibitory concentration (IC50) turned out to be 802 nM.

On to `N#Cc1ccc(OCCN2CCC(CC3(C4CCCC4)NCCc4ccccc43)CC2)cc1` (stereo not drawn) [compound 105, 4-(2-(4-((1-cyclopentyl-1,2,3,4-tetrahydroisoquinolin-1-yl)methyl)piperidin-1-yl)ethoxy)benzonitrile], for which the IC50 was determined as 20200 nM.

In the case of `CNC(=O)O[C@H]1CCC[C@@H]1C(C#N)(c1ccccc1)C1CCN(CC2CN(c3ccc([N+](=O)[O-])cc3)C2)CC1` (mixture of isomers) [compound 385, rac-(1S,2R)-2-(cyano(1-((1-(4-nitrophenyl)azetidin-3-yl)methyl)piperidin-4-yl)(phenyl)methyl)cyclopentyl methylcarbamate], the IC50 is 13 nM.

Consider `N#Cc1ccc(OCCCN2CCC(C3(C4CCCC4)CNC(=O)c4ccccc43)CC2)cc1` (stereo not drawn) [compound 21, 4-(3-(4-(4-cyclopentyl-1-oxo-1,2,3,4-tetrahydroisoquinolin-4-yl)piperidin-1-yl)propoxy)benzonitrile], for which the IC50 was 1100 nM.

As for `CC(=O)O[C@@H]1CCC[C@H]1C(C#N)(c1cccc(F)c1)C1CCN(CC2CN(c3ccc(CC(F)(F)F)cc3)C2)CC1` (mixture of isomers) [compound 420, rac-(1R,2S)-2-(cyano(3-fluorophenyl)(1-((1-(4-(2,2,2-trifluoroethyl)phenyl)azetidin-3-yl)methyl)piperidin-4-yl)methyl)cyclopentyl acetate], the IC50 was found to be 11600 nM.
